Assay results: paper PMC4414724 (Chemico-biological interactions, 2015)
Like-named read-outs stand apart in the source and are kept apart here.

What was measured:
[1] = target: rat liver alcohol dehydrogenase (Rattus norvegicus, UniProt P06757); assay: Oxidation of alcohols by isolated rat liver alcohol dehydrogenase
[2] = test system: methanol metabolism; details: cited from earlier work
[3] = test system: ethanol elimination; details: cited from earlier work
[4] = target: horse liver ADH1E (Equus caballus, UniProt P00327); assay: Reactions of horse liver ADH1E with 1,5-pentanediol and 5-hydroxypentanal; format: biochemical; details: for concentration formed in dismutation reaction: 5 mM 5-hydroxypentanal, 1 mM NAD+, 0.01 mg/mL ADH, at 12 h, GC
horse liver ADH1E, sequence (P00327 2-375 limits assumed): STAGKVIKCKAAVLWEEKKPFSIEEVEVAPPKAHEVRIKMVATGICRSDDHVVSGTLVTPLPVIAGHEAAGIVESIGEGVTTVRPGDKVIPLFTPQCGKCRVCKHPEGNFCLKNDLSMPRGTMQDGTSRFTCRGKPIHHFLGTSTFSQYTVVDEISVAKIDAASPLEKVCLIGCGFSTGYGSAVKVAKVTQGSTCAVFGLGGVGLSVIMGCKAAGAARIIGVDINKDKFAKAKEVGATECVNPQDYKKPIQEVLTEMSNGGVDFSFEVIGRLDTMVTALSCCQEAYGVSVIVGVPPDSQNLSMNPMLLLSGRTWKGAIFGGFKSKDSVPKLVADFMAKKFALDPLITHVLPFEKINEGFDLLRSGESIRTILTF

[5] = test system: cytochrome P-450; details: read-out: in vitro Ki; cited from earlier work
[6] = target: rat liver ADH; details: read-out: in vitro Ki (competitive against alcohol); cited from earlier work
[7] = from inhibition by 1 mmole/kg 4-methylpyrazole
[8] = 83 mM potassium phosphate, 40 mM KCl, pH 7.3, 37 °C, 0.5 mM NAD+
[9] = calculated from kinetic constants with Michaelis-Menten equation for 5 mM alcohol
[10] = observed rate without inhibitors minus the rate with 1 mmole/kg 4-methylpyrazole
[11] = secondary alcohols, doses of 5–10 mmole/kg
[12] = rats fasted 24 h, dose mmole/kg: 2-propanol 17, 2-propanol-d7 15
[13] = primary alcohols and diols, doses of 5–20 mmole/kg
[14] = data for zero order elimination, rats without inhibitors

rat liver alcohol dehydrogenase, sequence (P06757 2-376 limits assumed): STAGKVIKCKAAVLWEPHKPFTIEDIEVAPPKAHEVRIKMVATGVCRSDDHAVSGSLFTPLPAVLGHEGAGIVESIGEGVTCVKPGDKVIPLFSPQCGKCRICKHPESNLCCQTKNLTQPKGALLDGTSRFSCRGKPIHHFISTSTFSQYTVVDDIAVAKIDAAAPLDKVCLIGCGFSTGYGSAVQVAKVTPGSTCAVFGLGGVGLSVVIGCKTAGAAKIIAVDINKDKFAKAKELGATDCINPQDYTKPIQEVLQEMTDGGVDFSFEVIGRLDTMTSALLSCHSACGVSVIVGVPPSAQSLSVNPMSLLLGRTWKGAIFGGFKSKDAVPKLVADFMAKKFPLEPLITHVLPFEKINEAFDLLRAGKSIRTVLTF

OCCCCO [1,4-Butanediol, 1,4-butanediol]
Rate due to ADH (male, rat, in vivo): 5.8 | in vivo rate of elimination (male, rat, in vivo): 6.7 ± 0.1 mmol/kg/h | r (fraction of body weight accessible to the alcohol) (male, rat, in vivo, ip): 1.3 ± 0.2 mL/g | %ADH (estimated percentage of elimination due to ADH) (rat, in vivo): 86% | kinetics of elimination in rats (order) (rat, in vivo): zero-order kinetics | in vitro v rel [1]: 0.52 | V rel (Vmax relative to ethanol as substrate) ([1]; pH 7.3): 1.5 ± 0.3 | Vrel/K ([1]; pH 7.3): 0.16

CCCCO [1-Butanol, 1-butanol]
%ADH (estimated percentage of elimination due to ADH) [7]: 56% | in vivo rate of elimination (rat, in vivo): 3.2 ± 0.4 mmol/kg/h | Km [1, 8]: 0.14 ± 0.03 mM | V rel (Vmax relative to ethanol as substrate) [1, 8]: 1.3 ± 0.1 | in vitro v rel [1, 9]: 1.3 | Vrel/K ([1]; pH 7.3, 37 °C, 0.5 mM NAD+): 9.3

Nc1nc[nH]n1 [3-Aminotriazole, 3-Amino-1,2,4-triazole]
inhibition of methanol metabolism [2]: ~ 35% | inhibition of ethanol metabolism in rats [3]: ~ 10%

OC1CCCCC1 [Cyclohexanol, cyclohexanol]
%ADH (estimated percentage of elimination due to ADH) [7]: 74% | Rate due to ADH (male, rat, in vivo): 3.2 | in vivo rate of elimination (male, rat, in vivo): 4.3 ± 1.5 mmol/kg/h | 10^4 k1 (first order, alcohol to ketone) (male, rat, in vivo, ip): 229 ± 70 min^−1 | 10^4 k2 (first order, elimination of ketone) (male, rat, in vivo, ip): 50 ± 6 min^−1 | r (male, rat, in vivo, ip): 0.75 ± 0.21 mL/g | in vitro v rel [1, 9]: 0.90

CC(C)CO [2-Methyl-1-propanol, 2-methyl-1-propanol]
%ADH (estimated percentage of elimination due to ADH) [7]: 66% | in vivo rate of elimination (rat, in vivo): 3.8 ± 0.5 mmol/kg/h | Km [1, 8]: 0.19 ± 0.04 mM | V rel (Vmax relative to ethanol as substrate) [1, 8]: 0.80 ± 0.04 | in vitro v rel [1, 9]: 0.77 | Vrel/K ([1]; pH 7.3, 37 °C, 0.5 mM NAD+): 4.2

CCC(C)O (stereo not drawn) [2-Butanol, 2-butanol]
%ADH (estimated percentage of elimination due to ADH) [7]: 68% | Rate due to ADH (rat, in vivo): 1.7 | in vivo rate of elimination (rat, in vivo): 2.5 ± 0.4 mmol/kg/h | kinetics of elimination in rats (order) (rat, in vivo): first order kinetics | 10^4 k1 (first order, alcohol to ketone) (rat, in vivo, ip): 112 ± 17 min^−1 | 10^4 k2 (first order, elimination of ketone) (rat, in vivo, ip): 37 ± 4 min^−1 | k2 (zero order, elimination of ketone) (rat, in vivo, ip): 1.1 ± 0.2 mmol/kg/h | r (rat, in vivo, ip): 0.74 ± 0.08 mL/g | Km [1, 8]: 12 ± 6 mM | V rel (Vmax relative to ethanol as substrate) [1, 8]: 0.48 ± 0.03 | in vitro v rel [1, 9]: 0.14 | Vrel/K ([1]; pH 7.3, 37 °C, 0.5 mM NAD+): 0.04

CCC(C)=O [2-Butanone]
10^4 k2 (first order, elimination of ketone) (rat, in vivo, ip): 31 ± 2 min^−1 | k2 (zero order, elimination of ketone) (rat, in vivo, ip): 1.3 mmol/kg/h | r (rat, in vivo, ip): 0.81 mL/g

CCC(O)CC [3-Pentanol, 3-pentanol]
%ADH (estimated percentage of elimination due to ADH) [7]: 90% | Rate due to ADH [10]: 3.6 | kinetics of elimination in rats (order) [11]: first order kinetics | V rel (Vmax relative to ethanol as substrate) [1, 8]: 0.69 ± 0.03 | in vitro v rel [1, 9]: 0.35 | Vrel/K ([1]; pH 7.3, 37 °C, 0.5 mM NAD+): 0.14

CCCO [1-Propanol, 1-propanol]
%ADH (estimated percentage of elimination due to ADH) [7]: 81% | Rate due to ADH (rat, in vivo): 4.3 | in vivo rate of elimination (rat, in vivo): 5.3 ± 0.5 mmol/kg/h | kinetics of elimination in rats (order) (rat, in vivo): zero-order kinetics | r (fraction of body weight accessible to the alcohol) (rat, in vivo, ip): 0.67 ± 0.09 mL/g | Km [1, 8]: 0.22 ± 0.03 mM | V rel (Vmax relative to ethanol as substrate) [1, 8]: 0.95 ± 0.07 | in vitro v rel [1, 9]: 0.91 | Vrel/K ([1]; pH 7.3, 37 °C, 0.5 mM NAD+): 4.3

OCCO [1,2-Ethanediol, 1,2-ethanediol]
r (fraction of body weight accessible to the alcohol) (rat, in vivo, ip): 0.72 ± 0.08 mL/g | V rel (Vmax relative to ethanol as substrate) ([1]; pH 7.3): 0.99 ± 0.25 | Vrel/K ([1]; pH 7.3): 0.0013

O=C1CCCCO1 [δ-valerolactone]
concentration formed in dismutation reaction [4]: ~ 2 mM

c1cn[nH]c1 [pyrazole, reference compound]
Inhibition of the ADH reactions ([1]; 10 mM pyrazole): almost totally inhibited

[2H]C([2H])([2H])C([2H])(O)C([2H])([2H])[2H] [2-Propanol-d7, 2-propanol-d7]
10^4 k1 (first order, alcohol to ketone) (rat, in vivo): 18 ± 2 min^−1 | 10^4 k2 (first order, elimination of ketone) (rat, in vivo): 13 ± 2 min^−1 | k2 (zero order, elimination of ketone) (rat, in vivo): 0.44 ± 0.06 mmol/kg/h | 10^4 k1 (first order, alcohol to ketone) (rat, in vivo, ip): 25 ± 2 min^−1 | 10^4 k2 (first order, elimination of ketone) (rat, in vivo, ip): 19 ± 4 min^−1 | k2 (zero order, elimination of ketone) (rat, in vivo, ip): 0.59 ± 0.08 mmol/kg/h | r [12]: 0.70 ± 0.03 mL/g | kinetics of elimination in rats (order) [11]: first order kinetics | V rel (Vmax relative to ethanol as substrate) [1, 8]: 0.20 ± 0.02 | in vitro v rel [1, 9]: 0.011 | Vrel/K ([1]; pH 7.3, 37 °C, 0.5 mM NAD+): 0.0024

OC1CCCC1 [Cyclopentanol, cyclopentanol]
%ADH (estimated percentage of elimination due to ADH) [7]: 64% | Rate due to ADH [10]: 3.0 | kinetics of elimination in rats (order) [11]: first order kinetics | V rel (Vmax relative to ethanol as substrate) [1, 8]: 0.72 ± 0.04 | in vitro v rel [1, 9]: 0.68 | Vrel/K ([1]; pH 7.3, 37 °C, 0.5 mM NAD+): 2.2

OCCCCCO [1,5-Pentanediol, 1,5-pentanediol]
kinetics of elimination in rats (order) [13]: zero-order kinetics | Vmax relative to the activity on ethanol [4]: 1.1 | concentration formed in dismutation reaction [4]: ~ 2 mM | V rel (Vmax relative to ethanol as substrate) [1, 8]: 3.6 ± 1.3 | Vrel/K ([1]; pH 7.3, 37 °C, 0.5 mM NAD+): 1.0

CC(C)O [2-Propanol-d7, 2-propanol-d7]
Km ([1]; 83 mM potassium phosphate, 40 mM KCl, pH 7.3, 37 °C, 0.5 mM NAD+, listed as 2-propanol-d7): 83 ± 15 mM

OCc1ccccc1 [Benzyl alcohol, benzyl alcohol]
Ki [1]: 27 mM | V rel (Vmax relative to ethanol as substrate) [1, 8]: 0.47 ± 0.03 | Vrel/K ([1]; pH 7.3, 37 °C, 0.5 mM NAD+): 13

CC(C)CCO [3-Methyl-1-butanol, 3-methyl-1-butanol]
%ADH (estimated percentage of elimination due to ADH) [7]: 61% | in vivo rate of elimination (male, Sprague-Dawley, rat, in vivo): 4.6 ± 0.8 mmol/kg/h | V rel (Vmax relative to ethanol as substrate) [1, 8]: 0.54 ± 0.02 | in vitro v rel [1, 9]: 0.53 | Vrel/K ([1]; pH 7.3): 13

O=C1CCCCC1 [Cyclohexanone]
10^4 k1 (first order, alcohol to ketone) (male, rat, in vivo, ip): 176 ± 13 min^−1 | 10^4 k2 (first order, elimination of ketone) (male, rat, in vivo, ip): 67 ± 3 min^−1 | r (male, rat, in vivo, ip): 0.53 mL/g

Cc1cn[nH]c1 [4-methylpyrazole]
Ki [5]: 5.7 mM | Ki [6]: 0.00011 mM | effective, in vivo, competitive Ki ([3]; in the rat): 1.4 µmol/kg | inhibition of elimination of ethanol ([3]; inhibitor dose 1 mmole/kg, ethanol 20 mmole/kg): 87%

CC(O)CCO (stereo not drawn) [1,3-Butanediol, 1,3-butanediol]
in vivo rate of elimination [14]: 5.0 ± 0.3 mmol/kg/h | Rate due to ADH (male, rat, in vivo): 4.1 | r (fraction of body weight accessible to the alcohol) (male, rat, in vivo, ip): 0.82 ± 0.05 mL/g | %ADH (estimated percentage of elimination due to ADH) (rat, in vivo): 82% | in vitro v rel [1, 9]: 0.44

CC(C)C(N)=O [isobutyramide]
in vivo Ki (uncompetitive) [3]: 1 mmol/kg

CC(C)O [2-Propanol, 2-propanol]
inhibition of the rate of elimination (by 1 mmole/kg of 4-methylpyrazole): 55% | k2 (zero order, elimination of ketone) (fed rats, 10 mmole/kg isobutyramide (IBA), dose 10 mmole/kg): 0.44 mmol/kg/h | %ADH (estimated percentage of elimination due to ADH) [7]: 55% | 10^4 k1 (first order, alcohol to ketone) (rat, in vivo): 42 ± 4 min^−1 | 10^4 k2 (first order, elimination of ketone) (rat, in vivo): 14.3 ± 0.6 min^−1 | Km (rat, in vivo): 58 ± 20 mM | Vmax, Michaelis-Menten fit of elimination in vivo (rat, in vivo): 0.38 ± 0.10 mM/min | r (rat, in vivo): 0.75 ± 0.01 mL/g | k2 (zero order, elimination of ketone) [12]: 0.64 ± 0.02 mmol/kg/h | V rel (Vmax relative to ethanol as substrate) [1, 8]: 0.40 ± 0.02 | Km ([1]; 83 mM potassium phosphate, 40 mM KCl, pH 7.3, 37 °C, 0.5 mM NAD+, listed as 2-propanol): 36 ± 7 mM | in vitro v rel [1, 9]: 0.049 | Vrel/K ([1]; pH 7.3, 37 °C, 0.5 mM NAD+): 0.011

OCCCO [1,3-Propanediol, 1,3-propanediol]
in vivo rate of elimination [14]: 2.7 ± 0.8 mmol/kg/h | %ADH (estimated percentage of elimination due to ADH) [7]: 63% | Rate due to ADH [10]: 1.7 | kinetics of elimination in rats (order) [13]: zero-order kinetics | Km [1, 8]: 24 ± 2 mM | V rel (Vmax relative to ethanol as substrate) [1, 8]: 0.75 ± 0.04 | in vitro v rel [1, 9]: 0.13 | Vrel/K ([1]; pH 7.3, 37 °C, 0.5 mM NAD+): 0.031
